Type in all cases: cell-based
Assay [1] has as its system primary human mesenchymal stem cells (hMSCs). Description: Induction of chondrogenesis in primary human mesenchymal stem cells (chondrogenic nodules, Rhodamine B / Nile Red). Particulars: 6 days; for Emax: relative to TGF-β3 (10 ng/mL) positive control, read-out: Max. Activity as % TGF-β3 activity; for EC50: concentration required to induce 50% levels of chondrogenesis vs TGF-β3, read-out: Conc (nM) of 50% TGF-β3 activity. The procedure, abridged: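 Primary hMSCs at passage 3–6 were fixed with 4% formaldehyde and stained with 2 μg/mL Rhodamine B plus 20 μM Nile Red to image chondrogenic nodules. Nodule counts normalized to the mean of 3 DMSO wells (fold change), averaged over 3 replicate wells per concentration. TGF-β3 served as positive control; EC50, maximum activity and the dose giving maximum are reported.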

For the next assay, the system named is IL-6 in THP-1 cells. Description: IL-6 inhibition in LPS-stimulated THP-1 human monocyte cells (HTRF). Particulars: for EC50: IL-6 inhibition, LPS-stimulated THP-1 cells, HTRF, 10-point dose-response starting from 10 μM. In outline: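 THP-1 cells were serum-reduced (1% FBS, 24 h), plated at 5000 cells/well with compound for 2 h at 37 °C, then stimulated 22 h with 500 ng/mL LPS. Secreted IL-6 was quantified by HTRF (665/620 nm ratio). Signals were normalised to DMSO, and EC50 was fitted by four-parameter nonlinear regression.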

Assay [2] relates to Wnt activity (Sp5-Luc reporter, TCF/LEF binding sites) in SW480 colon carcinoma cells. As to the kind of experiment: Wnt activity screening assay: Sp5-Luc reporter gene assay in SW480 cells. Particulars: Homo sapiens; for EC50: Sp5-Luc reporter, SW480 cells, overnight incubation; for inhibition at 10 µM: SW480, read-out: percent inhibition at 10 μM. The procedure, abridged:
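SW480 cells stably carrying a luciferase reporter under a human Sp5 promoter with eight TCF/LEF sites, plated at 4,000 cells/well in 1% FBS medium. Luminescence read with BrightGlo, normalized to DMSO-treated cells; EC50 from four-parameter variable-slope nonlinear regression.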

In assay [3] the test system is LL29 cells (primary human fibroblasts derived from IPF patients), α-smooth muscle actin. As to the kind of experiment: Inhibition of the fibrotic process: αSMA staining in TGF-β1 treated primary human fibroblasts from IPF patients (LL29 cells). Particulars: Fibroblast; for EC50: 96 h, LL29 cells, TGF-β1 20 ng/mL, 4 days, % αSMA positive cells; for inhibition at 10 µM: read-out: percent inhibition at 10 μM. The procedure, abridged:
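Read-out after 4-day incubation: αSMA staining with 1 μM SYTOX green nuclear counterstain (30 min, room temperature). Cells were LL29 primary fibroblasts from IPF patients, in 1% FBS F12, exposed to TGF-β1 with test compound, referenced to TGF-β1/DMSO control wells.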

For the next assay, the system named is SW480 colon cancer cells. Description: Cell viability assay (CellTiter-Blue) in SW480 colon cancer cells. Particulars: Homo sapiens; for EC50: 96 h, SW480 cell viability, four days, CellTiter-Blue; for inhibition at 10 µM: SW480, read-out: percent inhibition at 10 μM. In outline: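 Fluorescence from resazurin reduced to resorufin by metabolically active cells was the read-out, taken after ~3 h with CellTiter-Blue.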

Among the data in patent US10226448B2, “3-(1H-pyrrolo[3,2-C]pyridin-2-yl)-1H-pyrazolo[3,4-B]pyridines and therapeutic uses thereof” (Samumed, LLC, priority 2015, dated 2019) are Emax, EC50 and inhibition values, retold here.

A value given as a limit tells only on which side of the number the result lay.

Regarding `CC(C)(C)CC(=O)Nc1cncc(-c2cnc3[nH]nc(-c4cc5c(N6CCCCC6)nccc5[nH]4)c3c2)c1` [Compound 184, 3,3-Dimethyl-N-(5-(3-(4-(piperidin-1-yl)-1H-pyrrolo[3,2-c]pyridin-2-yl)-1H-pyrazolo[3,4-b]pyridin-5-yl)pyridin-3-yl)butanamide], the Emax in assay [1] was found to be 84%. For the same molecule, the EC50 in the assay on IL-6 in THP-1 cells was 2260 nM; in assay [2], 1330 nM; in assay [3], 773 nM; with SW480 colon cancer cells, 1430 nM.

As to `CC(C)C(=O)Nc1cncc(-c2cnc3[nH]nc(-c4cc5c(N6CCN(C)CC6)nccc5[nH]4)c3c2)c1` [Compound 233, N-(5-(3-(4-(4-Methylpiperazin-1-yl)-1H-pyrrolo[3,2-c]pyridin-2-yl)-1H-pyrazolo[3,4-b]pyridin-5-yl)pyridin-3-yl)isobutyramide], the EC50 in assay [1] is 30 nM; in the assay with IL-6 in THP-1 cells, 611 nM; in assay [2], above 10000 nM; in assay [3], above 10000 nM; with SW480 colon cancer cells, above 10000 nM. In addition, the Emax in assay [1] worked out at 62%. Further, the inhibition at 10 µM was determined as 19.5% in assay [2], 34% in assay [3] and 10.7% in the assay with SW480 colon cancer cells.

Take `CC(C)(C)C(=O)Nc1cncc(-c2cnc3[nH]nc(-c4cc5c(-c6ccc(F)cc6)nccc5[nH]4)c3c2)c1` [Compound 36, N-(5-(3-(4-(4-Fluorophenyl)-1H-pyrrolo[3,2-c]pyridin-2-yl)-1H-pyrazolo[3,4-b]pyridin-5-yl)pyridin-3-yl)pivalamide]: in assay [1], the Emax is 44%. For the same molecule, the EC50 in the assay on IL-6 in THP-1 cells was 3230 nM; in assay [2], 980 nM; in assay [3], 579 nM; with SW480 colon cancer cells, 553 nM.

Consider `CS(=O)(=O)NCc1cc(F)cc(-c2nccc3[nH]c(-c4n[nH]c5ncc(-c6cncc(NC(=O)C7CCCCC7)c6)cc45)cc23)c1` [Compound 499, N-(5-(3-(4-(3-Fluoro-5-(methylsulfonamidomethyl)phenyl)-1H-pyrrolo[3,2-c]pyridin-2-yl)-1H-pyrazolo[3,4-b]pyridin-5-yl)pyridin-3-yl)cyclohexane carboxamide], for which, in assay [1], the Emax was 120%. Further, the EC50 in the assay on IL-6 in THP-1 cells is 3750 nM; in assay [2], 3630 nM; in assay [3] it was above 10000 nM; with SW480 colon cancer cells it was above 10000 nM. The inhibition at 10 µM in assay [3] is 23.6%; with SW480 colon cancer cells it was 35.5%.

In the case of `CC(C)CC(=O)Nc1cncc(-c2cnc3[nH]nc(-c4cc5c(-c6ccc(F)cc6)nccc5[nH]4)c3c2)c1` [Compound 30, N-(5-(3-(4-(4-Fluorophenyl)-1H-pyrrolo[3,2-c]pyridin-2-yl)-1H-pyrazolo[3,4-b]pyridin-5-yl)pyridin-3-yl)-3-methylbutanamide], the Emax in assay [1] turned out to be 107%. Also, the EC50 in the assay with IL-6 in THP-1 cells was 1550 nM; in assay [2], 996 nM; in assay [3], 261 nM; with SW480 colon cancer cells it was 523 nM.

With `CS(=O)(=O)NCc1cc(F)cc(-c2nccc3[nH]c(-c4n[nH]c5ncc(-c6cncc(NC(=O)C7CCC7)c6)cc45)cc23)c1` [Compound 497, N-(5-(3-(4-(3-Fluoro-5-(methylsulfonamidomethyl)phenyl)-1H-pyrrolo[3,2-c]pyridin-2-yl)-1H-pyrazolo[3,4-b]pyridin-5-yl)pyridin-3-yl)cyclobutanecarboxamide], the EC50 in assay [1] is 300 nM; in the assay on IL-6 in THP-1 cells it was 124 nM; in assay [2] it was 3640 nM; in assay [3], above 10000 nM; with SW480 colon cancer cells, above 10000 nM. The Emax in assay [1] amounted to 52%. The results for the inhibition at 10 µM (in assay [3]; in the assay on SW480 colon cancer cells) were 0% and 48%, respectively.

`CCNCc1cncc(-c2cnc3[nH]nc(-c4cc5c(-c6cc(F)cc(CNS(C)(=O)=O)c6)nccc5[nH]4)c3c2)c1` [Compound 482, N-(3-(2-(5-(5-((Ethylamino)methyl)pyridin-3-yl)-1H-pyrazolo[3,4-b]pyridin-3-yl)-1H-pyrrolo[3,2-c]pyridin-4-yl)-5-fluorobenzyl)methanesulfonamide]: the EC50 is 300 nM in assay [1]; 2240 nM in the assay on IL-6 in THP-1 cells; above 10000 nM in assay [2]; above 10000 nM in assay [3]; above 10000 nM in the assay with SW480 colon cancer cells. In assay [1], the Emax came to 61%. For the same molecule, the inhibition at 10 µM in assay [2] amounted to 8.8%; in assay [3] it was 0%; in the assay on SW480 colon cancer cells, 16.6%.

Consider `CCCCC(=O)Nc1cncc(-c2cnc3[nH]nc(-c4cc5cnccc5[nH]4)c3c2)c1` [Compound 271, N-(5-(3-(1H-Pyrrolo[3,2-c]pyridin-2-yl)-1H-pyrazolo[3,4-b]pyridin-5-yl)pyridin-3-yl)pentanamide], for which, in assay [1], the Emax turned out to be 31%. In addition, the EC50 stood at 2860 nM in the assay with IL-6 in THP-1 cells, 1470 nM in assay [2], 4100 nM in assay [3] and 4030 nM with SW480 colon cancer cells.

As to `Fc1ccccc1-c1nccc2[nH]c(-c3n[nH]c4ncc(-c5cn[nH]c5)cc34)cc12` [Compound 539, 3-(4-(2-Fluorophenyl)-1H-pyrrolo[3,2-c]pyridin-2-yl)-5-(1H-pyrazol-4-yl)-1H-pyrazolo[3,4-b]pyridine], the Emax in assay [1] was determined as 49%. Further, the EC50 in the assay with IL-6 in THP-1 cells was determined as 101 nM; in assay [2] it was 56 nM; in assay [3], 76 nM; with SW480 colon cancer cells, 261 nM.

On to `CN1CCN(c2nccc3[nH]c(-c4n[nH]c5ncc(-c6cncc(N)c6)cc45)cc23)CC1` [Compound 227, 5-(3-(4-(4-Methylpiperazin-1-yl)-1H-pyrrolo[3,2-c]pyridin-2-yl)-1H-pyrazolo[3,4-b]pyridin-5-yl)pyridin-3-amine], for which, in assay [1], the Emax was 18%. The EC50 is 707 nM in the assay on IL-6 in THP-1 cells, above 10000 nM in assay [2], above 10000 nM in assay [3] and above 10000 nM in the assay with SW480 colon cancer cells. Besides, the inhibition at 10 µM in assay [2] was determined as 28.1%; in assay [3] it was 0%; in the assay with SW480 colon cancer cells, 14.4%.

In the case of `O=C(Nc1cncc(-c2cnc3[nH]nc(-c4cc5c(-c6ccccc6F)nccc5[nH]4)c3c2)c1)C1CCCC1` [Compound 78, N-(5-(3-(4-(2-Fluorophenyl)-1H-pyrrolo[3,2-c]pyridin-2-yl)-1H-pyrazolo[3,4-b]pyridin-5-yl)pyridin-3-yl)cyclopentanecarboxamide], the Emax in assay [1] came out at 51%. The EC50 is 505 nM with IL-6 in THP-1 cells, 960 nM in assay [2], above 10000 nM in assay [3] and 651 nM with SW480 colon cancer cells. Further, the inhibition at 10 µM in assay [3] came to 12.7%.

In the case of `CN(C)Cc1cncc(-c2cnc3[nH]nc(-c4cc5c(-c6cccc(F)c6)nccc5[nH]4)c3c2)c1` [Compound 13, 1-(5-(3-(4-(3-Fluorophenyl)-1H-pyrrolo[3,2-c]pyridin-2-yl)-1H-pyrazolo[3,4-b]pyridin-5-yl)pyridin-3-yl)-N,N-dimethylmethanamine], the EC50 in assay [1] was 10 nM; in the assay with IL-6 in THP-1 cells, 6420 nM; in assay [2], 3260 nM; in assay [3], 2440 nM; in the assay on SW480 colon cancer cells it was 773 nM. In addition, in assay [1], the Emax was 110%.

In the case of `Nc1cncc(-c2cnc3[nH]nc(-c4cc5c(-c6ccncc6)nccc5[nH]4)c3c2)c1` [Compound 115, 5-(3-(4-(Pyridin-4-yl)-1H-pyrrolo[3,2-c]pyridin-2-yl)-1H-pyrazolo[3,4-b]pyridin-5-yl)pyridin-3-amine], the EC50 was 30 nM in assay [1]; above 10000 nM with IL-6 in THP-1 cells; above 10000 nM in assay [2]; above 10000 nM in assay [3]; above 10000 nM in the assay on SW480 colon cancer cells. Moreover, in assay [1], the Emax is 53%. Besides, the inhibition at 10 µM in the assay on IL-6 in THP-1 cells (THP-1, read-out: percentage in parentheses beside EC50 >10) is 9.7%; in assay [2], 9.3%; in assay [3] it was 53.8%; in the assay on SW480 colon cancer cells it was 10.1%.

In the case of `CCCC(=O)Nc1cncc(-c2cnc3[nH]nc(-c4cc5cnccc5[nH]4)c3c2)c1` [Compound 269, N-(5-(3-(1H-Pyrrolo[3,2-c]pyridin-2-yl)-1H-pyrazolo[3,4-b]pyridin-5-yl)pyridin-3-yl)butyramide], the Emax in assay [1] stood at 100%. The EC50 in the assay with IL-6 in THP-1 cells was 1020 nM; in assay [2] it was 867 nM; in assay [3], 2260 nM; in the assay on SW480 colon cancer cells, 3350 nM.

As to `Fc1ccc(-c2nccc3[nH]c(-c4n[nH]c5ncc(-c6cncc(CN7CCCC7)c6)cc45)cc23)cc1` [Compound 42, 3-(4-(4-Fluorophenyl)-1H-pyrrolo[3,2-c]pyridin-2-yl)-5-(5-(pyrrolidin-1-ylmethyl)pyridin-3-yl)-1H-pyrazolo[3,4-b]pyridine], the EC50 in assay [1] came out at 10 nM; with IL-6 in THP-1 cells, 3990 nM; in assay [2], 1570 nM; in assay [3], 720 nM; in the assay with SW480 colon cancer cells, 535 nM. In assay [1], the Emax stood at 105%.
